From US12178846B2, “Methods of using gap junctions as therapeutic targets for the treatment of degenerative disorders of the retina” (The Research Foundation for The State University of New York, priority 2014, dated 2024)
“Also recorded” adds a separate entry of the source.

Test system: amacrine cells in the INL
Experiment: NMDA-induced excitotoxic loss of amacrine cell subpopulations in the INL
Assay type: cell-based, mouse
Experimental: Various methods were employed to produce cell death. (1) Single cell apoptosis: CytC was injected into individual RGCs or Müller cells for 15 minutes after which retinas were incubated for 4 hours in oxygenated Ames medium before fixation. […] Both control and drug-treated retinas were then exposed for 1 hour to NMDA (100-300 μM) to induce excitotoxicity followed by 4 hours in the control Ames solution. (3) Retinal ischemia: Transient in vivo retinal ischemia was induced by introducing into the anterior chamber a 33-gauge needle attached to a saline-filled reservoir (0.9% sodium chloride) that was raised above the animal so as to increase intraocular pressure (IOP) to a level […]. MFA (2 μl, 500 μM) was administered intravitreally either 30 minutes before or 3 and 24 hours following the ischemic insult. The opposite eye was cannulated, but maintained at normal IOP to serve as a normotensive control. After 40-50 minutes, the needle was withdrawn and ischemia was evidenced by corneal whitening. After 7 days of reperfusion, mice were sacrificed and eyes were processed to assess retinal damage and neuronal death. […]
In some experiments, cells counts were limited to retrograde labeled RGCs in the GCL or certain subpopulation of amacrine cells, identified by specific markers, such as calretinin (CR), calbindin (CB) and choline acetyltransferase (ChAT) in the INL. Fluorescence intensity measures were made of glial fibrillary acidic protein (GFAP), which is overexpressed in Müller glial cells following retinal injury. Expression of GFAP and connexins were quantified by analysis of confocal images with Metavue software (Molecular Devices). Average pixel fluorescence intensities were measured by using uniform rectangular areas (3-5 per image) extending either from the GCL to the outer limiting membrane for GFAP or through the IPL for connexins. […]

[1] = MFA 50 μM 30 min, NMDA 300 μM 1 h, p<0.01

Cc1ccc(Cl)c(Nc2ccccc2C(=O)O)c1Cl [MFA, meclofenamic acid]
number of CB-immunolabeled ACs in the INL [1]: prevented the loss; also recorded: prevented such reduction | number of CR-immunolabeled ACs in the INL [1]: prevented the loss; also recorded: prevented reduction | number of ChAT-positive ACs in the INL (MFA, NMDA-induced excitotoxicity, p>0.1): nor was this affected
